Assay results: US7700609B2, “Compositions useful as inhibitors of protein kinases” (Vertex Pharmaceuticals Incorporated, priority 2003, dated 2010)

biological target: T1, Itk (Homo sapiens, UniProt Q08881); test: Itk inhibition assay: radioactivity-based (Method A); type: biochemical; conditions: 15 μM ATP, read-out: IC50 in the radioactive incorporation assay (Method A)
T1 sequence (Q08881 1-620): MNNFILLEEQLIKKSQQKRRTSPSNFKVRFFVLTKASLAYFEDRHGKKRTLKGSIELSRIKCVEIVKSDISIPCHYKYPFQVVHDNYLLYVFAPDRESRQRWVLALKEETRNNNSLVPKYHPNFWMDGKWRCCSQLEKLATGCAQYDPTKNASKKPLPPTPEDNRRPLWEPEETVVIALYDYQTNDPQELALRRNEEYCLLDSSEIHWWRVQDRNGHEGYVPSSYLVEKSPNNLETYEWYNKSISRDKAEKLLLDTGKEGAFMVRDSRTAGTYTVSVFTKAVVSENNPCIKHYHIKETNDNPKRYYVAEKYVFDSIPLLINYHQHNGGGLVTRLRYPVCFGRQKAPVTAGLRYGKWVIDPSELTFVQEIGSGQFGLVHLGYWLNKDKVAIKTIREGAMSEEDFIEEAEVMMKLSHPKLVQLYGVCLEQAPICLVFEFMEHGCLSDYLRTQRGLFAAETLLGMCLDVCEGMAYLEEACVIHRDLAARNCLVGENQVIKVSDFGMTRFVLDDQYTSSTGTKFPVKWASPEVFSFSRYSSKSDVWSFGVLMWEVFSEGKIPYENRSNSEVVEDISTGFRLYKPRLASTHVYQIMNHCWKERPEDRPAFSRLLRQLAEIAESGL
Procedure: The compounds of the present invention were evaluated as inhibitors of human Itk kinase using either a radioactivity-based, spectrophotometric or alphascreen assay.
Assays were carried out in a mixture of 100 mM HEPES (pH 7.5), 10 mM MgCl2, 25 mM NaCl, 0.01% BSA and 1 mM DTT. Final substrate concentrations were 15 μM [γ-^33P]ATP (400 μCi ^33P ATP/μmol ATP, Amersham Pharmacia Biotech/Sigma Chemicals) and 2 μM peptide (SAM68 protein Δ332-443). Assays were carried out at 25° C. in the presence of 30 nM Itk. An assay stock buffer solution was prepared containing all of the reagents listed above, with the exception of ATP and the test compound of interest. 50 μL of the stock solution was placed in a 96 well plate followed by addition of 1.5 μL of DMSO stock containing serial dilutions of the test compound (typically starting from a final concentration of 15 μM with 2-fold serial dilutions) in duplicate (final DMSO concentration 1.5%). The plate was pre-incubated for 10 minutes at 25° C. and the reaction initiated by addition of 50 μL [γ-^33P]ATP (final concentration 15 μM).
The reaction was stopped after 10 minutes by the addition of 50 μL of a TCA/ATP mixture (20% TCA, 0.4 mM ATP). A Unifilter GF/C 96 well plate (Perkin Elmer Life Sciences, Cat no. 6005174) was pretreated with 50 μL Milli Q water prior to the addition of the entire reaction mixture (150 μL). The plate was washed with 200 μL Milli Q water followed by 200 μL of a TCA/ATP mixture (5% TCA, 1 mM ATP). This wash cycle was repeated a further 2 times. After drying, 30 μL Optiphase ‘SuperMix’ liquid scintillation cocktail (Perkin Elmer) was added to the well prior to scintillation counting (1450 Microbeta Liquid Scintillation Counter, Wallac).
IC50 data were calculated from non-linear regression analysis of the initial rate data using the Prism software package (GraphPad Prism version 3.0cx for Macintosh, GraphPad Software, San Diego Calif., USA).

IC50, < 1 µM:
COc1cccc(-c2cc3c(s2)CCc2cnc(Nc4cccc(S(C)(=O)=O)c4)nc2-3)c1 [Compound I-24]
COc1cccc(-c2cc3c(s2)CCc2cnc(Nc4ccc(S(C)(=O)=O)cc4)nc2-3)c1 [Compound I-25]
NS(=O)(=O)c1cccc(Nc2ncc3c(n2)-c2cc(-c4ccccc4O)sc2CC3)c1 [Compound I-27]
NS(=O)(=O)c1cccc(Nc2ncc3c(n2)-c2cc(-c4ccccc4OC(F)(F)F)sc2CC3)c1 [Compound I-28]
NS(=O)(=O)c1cccc(Nc2ncc3c(n2)-c2cc(-c4ccccc4CO)sc2CC3)c1 [Compound I-29]
